Experimental findings from paper PMC6706801, “Palladium-Catalyzed Hydroxycarbonylation of (Hetero)aryl Halides for DNA-Encoded Chemical Library Synthesis” (Bioconjugate Chemistry, 2019) are described below.

The target in this assay is T1, soluble epoxide hydrolase (sEH, EPHX2) (Homo sapiens, UniProt P34913).
T1 sequence (P34913 1-555): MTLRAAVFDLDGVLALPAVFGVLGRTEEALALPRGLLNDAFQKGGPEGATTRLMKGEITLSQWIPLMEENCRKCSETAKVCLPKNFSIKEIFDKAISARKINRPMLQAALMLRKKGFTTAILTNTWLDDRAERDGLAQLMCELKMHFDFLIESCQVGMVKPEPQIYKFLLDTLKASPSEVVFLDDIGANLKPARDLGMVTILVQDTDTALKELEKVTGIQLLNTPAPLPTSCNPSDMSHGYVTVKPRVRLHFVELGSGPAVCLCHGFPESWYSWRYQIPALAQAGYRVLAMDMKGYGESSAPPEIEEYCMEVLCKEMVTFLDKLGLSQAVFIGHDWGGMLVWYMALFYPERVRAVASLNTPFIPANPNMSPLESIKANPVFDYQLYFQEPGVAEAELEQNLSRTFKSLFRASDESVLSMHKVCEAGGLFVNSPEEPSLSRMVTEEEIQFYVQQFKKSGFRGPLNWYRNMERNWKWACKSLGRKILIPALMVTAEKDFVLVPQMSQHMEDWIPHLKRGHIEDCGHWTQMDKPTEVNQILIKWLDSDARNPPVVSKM
In words: fluorescent kinetic enzyme assay (off-DNA hit resynthesised after DECL selection). The assay is classed as biochemical.

SMILES strings stand for the structures.

Broadly, the Ki is a measure of affinity in units of concentration, obtained from inhibition or displacement. Turning to `Cc1cccc(CCNC(=O)c2ccc(F)c(CN(C)Cc3cc(C(=O)NCCc4cccc(C)c4)ccc3F)c2)c1` [compound 5, 5], affinity was put at a Ki of 9 ± 2 nM.
